Reference: PMC7274485, “A symbiotic bacterium of shipworms produces a compound with broad spectrum anti-apicomplexan activity” (PLoS Pathogens, 2020)

Columns and labels:
Gram negative bacteria = settings: cited from earlier work
Gram positive bacteria = settings: cited from earlier work
[1] = test system: hypoxia-inducible factor-1 transcription; set-up: method as in PMID 17256467; settings: under hypoxic conditions; cited from earlier work
rodent malaria = test system: rodent malaria; set-up: method as in PMID 994322; settings: cited from earlier work
poultry coccidiosis = test system: poultry coccidiosis; set-up: method as in earlier work; settings: cited from earlier work
NLRP3 inflammasome = test system: NLRP3 inflammasome; set-up: method as in PMID 30183250; settings: through activity as a potassium ionophore; cited from earlier work
Plasmodium falciparum = assay: P. falciparum-infected erythrocyte proliferation, SYBR green incorporation; type: cell-based; settings: infected erythrocytes, 72 hours; read-out: EC50 against P. falciparum
Description: The maintenance of Plasmodium falciparum cultures and conducting of in vitro inhibitor response assays have been previously described.

C[C@@H]1C(=O)C[C@@H](O)CC/C=C/C=C\CC[C@H](C)OC(=O)C(O)[C@]2(O)O[C@@H](CC[C@H]2C)[C@H](C)C(=O)C[C@@H](O)CC/C=C/C=C\CC[C@H](C)OC(=O)C(O)[C@]2(O)O[C@H]1CC[C@H]2C (stereo partly drawn) [Tartrolon A]
Activity against Gram negative bacteria (Gram negative bacteria): not Gram negative bacteria | Activity against Gram positive bacteria (Gram positive bacteria): activity against Gram positive

C[C@@H]1C(=O)C[C@@H](O)CC/C=C/C=C\CC[C@H](C)OC(=O)[C@@H]2O[B-]34O[C@@H](C(=O)O[C@@H](C)CC/C=C\C=C\CC[C@H](O)CC(=O)[C@@H](C)[C@@H]5CC[C@](C)(O)[C@]2(O5)O3)[C@@]2(O[C@H]1CC[C@]2(C)O)O4 [Tartrolon C]
Inhibition of hypoxia-inducible factor-1 transcription [1]: inhibit hypoxia-inducible factor-1 transcription

C[C@@H]1CC[C@@H]2O[C@]13O[B-]14O[C@H]3C(=O)O[C@H]3C[C@@H](/C=C/C[C@@H](O)C(C)(C)[C@@H]5CC[C@@H](C)[C@](O5)(O1)[C@@H](O4)C(=O)O[C@H]1C[C@@H](/C=C/C[C@@H](O)C2(C)C)O[C@@H]1C)O[C@@H]3C.[Na+] [aplasmomycin]
In vivo activity against rodent malaria (rodent malaria): active in vivo

CC(C)[C@@H](N)C(=O)O[C@H](C)[C@@H]1C/C=C\CC[C@H](O)C(C)(C)[C@@H]2CC[C@@H](C)[C@@]3(O2)O[B-]24O[C@@H](C(=O)O1)[C@]1(O[C@@H](CC[C@H]1C)C(C)(C)[C@H](O)CCC[C@@H]1C[C@H](OC(=O)[C@@H]3O2)[C@@H](C)O1)O4.[H+] [boromycin]
In vivo activity against poultry coccidiosis (poultry coccidiosis): active in vivo

C[C@@H]1C(=O)C[C@@H](O)CC/C=C\C=C\CC[C@H](C)OC(=O)[C@@H]2O[B-]34O[C@@H](C(=O)O[C@@H](C)CC/C=C\C=C\CC[C@H](O)CC(=O)[C@@H](C)[C@@H]5CC[C@@H](C)[C@]2(O5)O3)[C@@]2(O[C@H]1CC[C@H]2C)O4.[Na+] [Tartrolon B]
Activation of the NLRP3 inflammasome (NLRP3 inflammasome): activate the NLRP3 inflammasome | Activity against Gram negative bacteria (Gram negative bacteria): not Gram negative bacteria | Activity against Gram positive bacteria (Gram positive bacteria): activity against Gram positive

C[C@H]1[C@@H](O)O[C@@H]2O[C@@]3(C)CC[C@H]4[C@H](C)CC[C@@H]1[C@@]24OO3 [DHA, dihydroartemesinin, reference compound]
EC50 (Plasmodium falciparum): 0.02 nM
